In patent US20150025132A1, “COMPOSITIONS AND METHODS FOR INHIBITING ENDOSPORES USING GREEN TEA POLYPHENOLS” (priority 2013, published 2015):

Experiments:
B. cereus = test: Inhibition of endospore germination (outgrowth), plating on nutrient agar; type: cell-based, Bacillus cereus; conditions: for Average Inhibition of Spore Germination: Table 2, B. cereus, 2 hours treatment; for Average Percent Inhibition of B. cereus: Table 3 (FIG. 2)
Protocol: (§1) Heated samples were treated with 1, 5, 10% of GTP (mixed green tea polyphenols), LTP (lipophilic green tea polyphenols), EGCg (epigallocatechingallate), or EGCg-Stearate for 2 hours, diluted and plated onto nutrient agar plates, and incubated at 37° C. for 24 hours. Non-starved cells and starved cells without treatment were used as controls.
(§2) Germination, specifically outgrowth, of purified endospores in Bacillus cereus, B. megaterium, and B. subtilis was studied by treating the bacteria with four different green tea polyphenols: GTP (mixed green tea polyphenols), LTP (lipophilic green tea polyphenols), EGCg (epigallocatechingallate), and EGCg-Stearate.

B. megaterium = test: as above; type: cell-based, Bacillus megaterium; conditions: for Average Inhibition of Spore Germination: Table 2, B. megaterium, 2 hours treatment; for Average Percent Inhibition of B. megaterium: Table 4 (FIG. 3)
Protocol: as §1, §2

B. subtilis = test: as above; type: cell-based, Bacillus subtilis; conditions: for Average Inhibition of Spore Germination: Table 2, B. subtilis, 2 hours treatment; for Average Percent Inhibition of B. subtilis: Table 5 (FIG. 4)
Protocol: as §1, §2

[1] = tested on: Bacillus megaterium spores; test: Viability of heat-treated spores after treatment, colony count on nutrient agar; type: cell-based; conditions: 10%
Protocol: Bacillus megaterium spores were induced through process of starvation for 2 hours in sterile deionized water and then heated at 90° C. for 20 minutes. The heated samples were treated with 10% of EGCG or EGCG-ester for 1 hour or 24 hours respectively and then plated onto nutrient agar plates with a countable range of 150 to 300 CPU (colony counting unit). The non-starved cells and starved cells without treatment were used as controls.

Structure (SMILES)	Average Inhibition of Spore Germination (B. cereus; 1%)	Average Inhibition of Spore Germination (B. cereus; 5%)	Average Inhibition of Spore Germination (B. cereus; 10%)	Average Percent Inhibition of B. cereus (B. cereus; concentration 1%)	Average Percent Inhibition of B. cereus (B. cereus; concentration 5%)	Average Percent Inhibition of B. cereus (B. cereus; concentration 10%)	Average Inhibition of Spore Germination (B. megaterium; 10%)	Average Percent Inhibition of B. megaterium (B. megaterium; concentration 1%)	Average Percent Inhibition of B. megaterium (B. megaterium; concentration 5%)	Average Percent Inhibition of B. megaterium (B. megaterium; concentration 10%)	Average Inhibition of Spore Germination (B. subtilis; 1%)	Average Inhibition of Spore Germination (B. subtilis; 5%)	Average Inhibition of Spore Germination (B. subtilis; 10%)	Average Percent Inhibition of B. subtilis (B. subtilis; concentration 1%)	Average Percent Inhibition of B. subtilis (B. subtilis; concentration 5%)	Inhibition of viability of Bacillus megaterium spores compared to the control ([1]; after 24 hours-incubation at 37° C.)	Viable cells or colonies of Bacillus megaterium detected ([1]; both 1 hour and 24 hours treated samples)	Average Inhibition of Spore Germination (B. megaterium; 1%)	Average Inhibition of Spore Germination (B. megaterium; 5%)
O=C(O[C@@H]1Cc2c(O)cc(O)cc2O[C@@H]1c1cc(O)c(O)c(O)c1)c1cc(O)c(O)c(O)c1 [EGCg, (−)-epigallocatechin-3-gallate]	16.9%	25.7%	33.0%	94.18%	91.68%	99%	100.0%	96.39%	99.48%	99.85%	52.9%	45.1%	66.1%	99.95%	100%	90%	no viable cells or colonies		
CCCCCCCCCCCCCCCCCC(=O)Oc1c(O)cc([C@H]2Oc3cc(O)cc(O)c3C[C@H]2OC(=O)c2cc(O)c(O)c(O)c2)cc1O [EGCg-Stearate, (−)-epigallocatechin-3-gallate (EGCG) esterified at the 4′ position with stearic acid]	72.6%	56.6%	90.5%	88.81%	98.49%	98%	79.0%	99.84%	91.91%	97.14%	55.0%	58.1%	69.2%	99.93%	98.77%			70.5%	75.0%
